{"source": "patent US4337247A", "about": "“Tetrapeptidesemicarbazide derivatives and their production and use” (Takeda Chemical Industries, Ltd., priority 1979, dated 1982)", "origin": "cited, not measured here", "details": "for analgesic effect: intravenous route; for morphinomimetic activity: direct intracerebral administration"}
{"substance": "β-endorphine (YGGFMTSEKSQTPLVTLFKNAIIKNAYKKGE; Beta-endorphin; UniProt P01189 237-267, looked up) [polypeptide consisting of 31 amino acids, considered to be derived from the carboxy-terminal of β-lipotrophine]", "values": [{"measurement": "analgesic effect", "value": "displays an overt analgesic action"}]}
{"substance": "H-Tyr-Gly-Gly-Phe-Leu-OH", "values": [{"measurement": "morphinomimetic activity", "value": "show morphinomimetic activity"}, {"measurement": "analgesic effect", "value": "do not produce analgesic effects"}]}
{"substance": "H-Tyr-Gly-Gly-Phe-Met-OH (H-YGGFM-OH) [enkephalin, pentapeptide isolated from the pig brain]", "values": [{"measurement": "morphinomimetic activity", "value": "show morphinomimetic activity"}, {"measurement": "analgesic effect", "value": "do not produce analgesic effects"}]}
